Target: T1, SIRT1 (Homo sapiens, UniProt Q96EB6)
T1 sequence (Q96EB6 1-747): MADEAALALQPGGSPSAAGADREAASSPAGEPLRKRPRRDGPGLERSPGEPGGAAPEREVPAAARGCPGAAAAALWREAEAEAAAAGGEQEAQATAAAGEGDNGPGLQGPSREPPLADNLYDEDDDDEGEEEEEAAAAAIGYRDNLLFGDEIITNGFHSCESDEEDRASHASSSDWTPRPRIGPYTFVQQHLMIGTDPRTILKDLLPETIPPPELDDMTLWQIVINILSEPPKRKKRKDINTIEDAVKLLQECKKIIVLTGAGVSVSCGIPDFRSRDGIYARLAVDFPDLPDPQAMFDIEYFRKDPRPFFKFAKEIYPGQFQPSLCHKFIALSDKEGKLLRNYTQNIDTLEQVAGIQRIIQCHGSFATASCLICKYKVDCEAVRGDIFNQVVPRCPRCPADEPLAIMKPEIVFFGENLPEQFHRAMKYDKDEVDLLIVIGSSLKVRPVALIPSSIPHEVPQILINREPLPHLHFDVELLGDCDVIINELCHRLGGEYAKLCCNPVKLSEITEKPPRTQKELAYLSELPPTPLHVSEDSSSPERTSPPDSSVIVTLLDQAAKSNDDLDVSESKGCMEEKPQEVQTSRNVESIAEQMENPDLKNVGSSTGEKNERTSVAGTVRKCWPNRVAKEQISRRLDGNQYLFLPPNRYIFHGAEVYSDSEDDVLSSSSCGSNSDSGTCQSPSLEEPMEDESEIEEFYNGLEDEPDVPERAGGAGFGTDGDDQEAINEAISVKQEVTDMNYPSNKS
Test: SIRT1 mass spectrometry (MS) based deacetylation assay; as to FOLD ACT. MS: test concentration or dose not given here
Format: biochemical
Details: Sirt1 activators; for FOLD ACT. MS: fold activation as determined by MS; for EC50: mass spectrometry assay, read-out: ED50 MS ASSAY

Row | Structure (SMILES) | FOLD ACT. MS | EC50 [µM]
1 | COc1ccc(C(=O)Nc2ccccc2-c2nc3cccnc3[nH]2)cc1 [Compound 531] | B (B (Fold Activation <250%)) | < 5
2 | COc1cccc(C(=O)Nc2ccccc2-c2nc3cccnc3[nH]2)c1 [Compound 532] | B (B (Fold Activation <250%)) | < 5
3 | O=C(Nc1ccccc1-c1nc2cccnc2[nH]1)c1ccccc1 [Compound 533] | B (B (Fold Activation <250%)) | < 5
4 | CN(C)c1ccc(C(=O)Nc2ccccc2-c2nc3cccnc3[nH]2)cc1 [Compound 534] | B (B (Fold Activation <250%)) | < 5
5 | COc1cc(C(=O)Nc2ccccc2-c2nc3cccnc3[nH]2)ccc1CN1CCCC1 [Compound 535] | A (A (Fold activation >250%)) | 5 to 50
6 | COc1cc(C(=O)Nc2ccccc2-c2nc3cccnc3[nH]2)ccc1CN1CCCCC1 [Compound 536] | A (A (Fold activation >250%)) | 5 to 50
7 | COc1cc(C(=O)Nc2ccccc2-c2nc3cccnc3[nH]2)ccc1CN1CCOCC1 [Compound 537] | A (A (Fold activation >250%)) | < 5
8 | COc1cc(C(=O)Nc2ccccc2-c2nc3cccnc3[nH]2)ccc1CN1CCNCC1 [Compound 538] | A (A (Fold activation >250%)) | 5 to 50
9 | COc1cc(C(=O)Nc2ccccc2-c2nc3cccnc3[nH]2)ccc1CN1CCN(C)CC1 [Compound 539] | A (A (Fold activation >250%)) | < 5
10 | COc1cc(C(=O)Nc2ccccc2-c2nc3cccnc3[nH]2)ccc1CN(C)C [Compound 540] | A (A (Fold activation >250%)) | 5 to 50
11 | COc1cc(C(=O)Nc2ccccc2-c2cn3ccccc3n2)ccc1CN1CCOCC1 [Compound 541] | B (B (Fold Activation <250%)) | 5 to 50
12 | COc1cc(C(=O)Nc2ccccc2-c2cn3cccnc3n2)ccc1CN1CCOCC1 [Compound 542] | A (A (Fold activation >250%)) | 5 to 50
13 | O=C(Nc1ccccc1-c1cn2c(CN3CCNCC3)csc2n1)c1cnccn1 [Compound 543] | A (A (Fold activation >250%)) | < 5
14 | O=C(Nc1ccccc1-c1cn2c(CN3CCNCC3)csc2n1)c1cc2ccccc2s1 [Compound 544] | A (A (Fold activation >250%)) | 5 to 50
15 | COc1ccc(C(=O)Nc2ccccc2-c2cn3c(n2)CCCC3)cc1OC [Compound 545] | B (B (Fold Activation <250%)) | 5 to 50
16 | COc1cc(C(=O)Nc2ccccc2-c2cn3c(n2)CCCC3)cc(OC)c1OC [Compound 546] | B (B (Fold Activation <250%)) | 5 to 50

Row | Structure (SMILES) | FOLD ACT. MS | EC50 [µM]
17 | O=C(Nc1ccccc1-c1cn2c(n1)CCCC2)c1ccc2ccccc2n1 [Compound 547] | B (B (Fold Activation <250%)) | < 5
18 | O=C(Nc1ccccc1-c1cn2c(n1)CCCC2)c1cnc2ccccc2n1 [Compound 548] | B (B (Fold Activation <250%)) | < 5
19 | O=C(Nc1ccccc1-c1nc2ccccc2[nH]1)c1ccc2ccccc2n1 [Compound 556] | A (A (Fold activation >250%)) | < 5
20 | COc1cc(C(=O)Nc2ccccc2-c2nc3ccccc3[nH]2)ccc1CN1CCNCC1 [Compound 558] | A (A (Fold activation >250%)) | < 5
21 | COc1ccc(C(=O)Nc2ccc(-c3nc4ccncc4o3)s2)c(OC)c1 [Compound 561] | B (B (Fold Activation <250%)) | < 5
22 | COc1cc(OC)cc(C(=O)Nc2ccc(-c3nc4ccncc4o3)s2)c1 [Compound 562] | B (B (Fold Activation <250%)) | < 5
23 | COc1cc(C(=O)Nc2ccc(-c3nc4ccncc4o3)s2)cc(OC)c1OC [Compound 563] | B (B (Fold Activation <250%)) | 5 to 50
24 | CS(=O)(=O)Nc1cccc(C(=O)Nc2cc(-c3nc4ncccc4o3)ccn2)c1 [Compound 566] | B (B (Fold Activation <250%)) | 5 to 50
25 | COc1cc(C(=O)Nc2cc(-c3nc4ncccc4o3)ccn2)ccc1CN1CCCCC1 [Compound 571] | B (B (Fold Activation <250%)) | 5 to 50
26 | COc1cc(C(=O)Nc2cc(-c3nc4ncccc4o3)ccn2)ccc1CN1CCCC1 [Compound 572] | B (B (Fold Activation <250%)) | 51 to 100
27 | CCn1ccc(C(=O)Nc2ccccc2-c2nc3ncccc3o2)n1 [Compound 581] | B (B (Fold Activation <250%)) | 5 to 50
28 | COc1cc(C(=O)Nc2ccccc2-c2nc3ncccc3o2)ccc1CN1CCCCC1 [Compound 585] | B (B (Fold Activation <250%)) | 5 to 50
29 | COc1cc(C(=O)Nc2ccccc2-c2nc3ccccc3[nH]2)ccc1CN1CCCC1 [Compound 587] | B (B (Fold Activation <250%)) | < 5
30 | COc1cc(C(=O)Nc2ccccc2-c2nc3cc(CN4CCNCC4)cnc3s2)cc(OC)c1OC [Compound 588] | A (A (Fold activation >250%)) | 5 to 50
31 | COc1ccc(OC(=O)Nc2ccccc2-c2nc3ccncc3s2)cc1 [Compound 597] | – | < 5

Next, values leading:

Row | FOLD ACT. MS | EC50 [µM] | Structure (SMILES)
32 | A (A (Fold activation >250%)) | < 5 | COc1cc(OC)cc(C(=O)Nc2ccccc2-c2nc3cc(CN4CCNCC4)cnc3s2)c1 [Compound 589]
33 | B (B (Fold Activation <250%)) | 5 to 50 | O=C(Nc1ccccc1-c1nc2cc(CN3CCNCC3)cnc2s1)c1ccc2c(c1)OCO2 [Compound 590]
34 | A (A (Fold activation >250%)) | < 5 | Cc1ccc(C(=O)Nc2ccccc2-c2nc3cc(CN4CCNCC4)cnc3s2)cc1C [Compound 591]
35 | B (B (Fold Activation <250%)) | < 5 | N#Cc1cccc(C(=O)Nc2ccccc2-c2nc3cc(CN4CCNCC4)cnc3s2)c1 [Compound 592]
36 | A (A (Fold activation >250%)) | < 5 | CN(C)c1cccc(C(=O)Nc2ccccc2-c2nc3cc(CN4CCNCC4)cnc3s2)c1 [Compound 593]
37 | B (B (Fold Activation <250%)) | 5 to 50 | O=C(Nc1ccccc1-c1nc2cc(CN3CCNCC3)cnc2s1)c1ccc(F)c(F)c1 [Compound 594]
38 | – | < 5 | O=C(Nc1ccccc1-c1nc2ccncc2s1)c1cc(C(F)(F)F)ccc1C(F)(F)F [Compound 596]
39 | – | < 5 | COc1ccc(NC(=S)Nc2cccc(-c3nc4ccncc4s3)c2)c(OC)c1 [Compound 599]
40 | – | > 150 | COc1ccc(NC(=S)Nc2cccc(-c3nc4ccncc4s3)c2)cc1OC [Compound 600]
41 | A (A (Fold activation >250%)) | < 5 | O=C(Nc1ccccc1-c1cn2c(CN3CCOCC3)csc2n1)c1cnc2ccccc2n1 [Compound 617]
42 | B (B (Fold Activation <250%)) | < 5 | O=C(Nc1ccccc1-c1cn2c(CN3CCCCC3)csc2n1)c1cnc2ccccc2n1 [Compound 618]
43 | B (B (Fold Activation <250%)) | < 5 | O=C(Nc1ccccc1-c1cn2c(CN3CCCC3)csc2n1)c1cnc2ccccc2n1 [Compound 619]
44 | B (B (Fold Activation <250%)) | < 5 | COc1cc(C(=O)Nc2ccccc2-c2cn3c(CN4CCCC4)csc3n2)cc(OC)c1OC [Compound 620]
45 | A (A (Fold activation >250%)) | < 5 | O=C(Nc1ncccc1-c1cn2c(CN3CCOCC3)csc2n1)c1cnc2ccccc2n1 [Compound 621]
46 | A (A (Fold activation >250%)) | < 5 | O=C(Nc1ccccc1-c1nc2cc(CN3CCNCC3)cnc2s1)c1cnc2ccccc2n1 [Compound 622]
47 | A (A (Fold activation >250%)) | < 5 | O=C(Nc1ccccc1-c1cn2c(CN3CCNCC3)csc2n1)c1cc2ccccc2o1 [Compound 624]
48 | A (A (Fold activation >250%)) | < 5 | O=C(Nc1ccccc1-c1cn2c(CN3CCNCC3)csc2n1)c1cc(-c2ccccc2)ncn1 [Compound 625]
49 | B (B (Fold Activation <250%)) | < 5 | O=C(Nc1ccccc1-c1cn2c(CN3CCN(Cc4ccccc4)CC3=O)csc2n1)c1cnc2ccccc2n1 [Compound 628]
50 | A (A (Fold activation >250%)) | 5 to 50 | COc1cc(C(=O)Nc2ccccc2-c2nc3ncccc3o2)ccc1CN1CCCC1 [Compound 629]
51 | A (A (Fold activation >250%)) | 5 to 50 | COc1cc(C(=O)Nc2ccccc2-c2nc3ncccc3o2)ccc1CN(C)C [Compound 630]
52 | B (B (Fold Activation <250%)) | < 5 | COc1cc(C(=O)Nc2ccccc2-c2nc3ncccc3o2)ccc1CN1CCOCC1 [Compound 631]
53 | A (A (Fold activation >250%)) | 5 to 50 | COc1cc(C(=O)Nc2ccccc2-c2nc3ncccc3o2)ccc1CN1CCN(C)CC1 [Compound 632]

Source: patent US8044198B2, “Sirtuin modulating compounds” (Sirtris Pharmaceuticals, Inc., priority 2005, dated 2011)
